Measurements: patent US12157741B2, “Macrocyclic inhibitors of DYRK1A” (DANA-FARBER CANCER INSTITUTE, INC., priority 2018, dated 2024)
Like-named read-outs stand apart in the source and are kept apart here.

Legend:
Assay type in all cases: binding
various enzymes [1] = biological target: various enzymes (Homo sapiens, UniProt Q9H3Y6); settings: compound 1 uM
Experimental: (§1) Ambit profiling was conducted in accordance with the manufacturer's instructions.

various enzymes [2] = biological target: various enzymes (Homo sapiens, UniProt P48736); settings: compound 1 uM
Experimental: as §1

various enzymes [3] = biological target: various enzymes (Homo sapiens, UniProt P42681); settings: compound 1 uM
Experimental: as §1

various enzymes [4] = biological target: various enzymes (Homo sapiens, UniProt Q09013); settings: compound 1 uM
Chain of various enzymes (Homo sapiens, UniProt Q09013) (Q09013 whole entry): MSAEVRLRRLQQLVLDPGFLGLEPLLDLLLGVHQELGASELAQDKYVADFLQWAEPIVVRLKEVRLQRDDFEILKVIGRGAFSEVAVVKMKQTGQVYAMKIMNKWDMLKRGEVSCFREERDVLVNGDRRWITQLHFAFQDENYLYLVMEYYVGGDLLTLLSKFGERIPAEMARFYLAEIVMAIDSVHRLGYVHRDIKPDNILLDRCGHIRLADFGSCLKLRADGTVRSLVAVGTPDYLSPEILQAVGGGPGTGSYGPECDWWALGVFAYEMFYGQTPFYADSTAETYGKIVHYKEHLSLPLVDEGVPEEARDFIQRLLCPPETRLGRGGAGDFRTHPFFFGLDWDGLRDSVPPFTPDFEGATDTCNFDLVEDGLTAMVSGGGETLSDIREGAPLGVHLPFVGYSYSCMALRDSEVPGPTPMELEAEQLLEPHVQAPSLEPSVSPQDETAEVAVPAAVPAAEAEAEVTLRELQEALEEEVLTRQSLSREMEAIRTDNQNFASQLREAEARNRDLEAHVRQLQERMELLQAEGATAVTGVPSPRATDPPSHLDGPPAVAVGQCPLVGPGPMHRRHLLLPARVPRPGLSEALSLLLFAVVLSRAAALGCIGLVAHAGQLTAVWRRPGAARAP
Experimental: as §1

various enzymes [5] = biological target: various enzymes (Homo sapiens, UniProt P46734); settings: compound 1 uM
Chain of various enzymes (Homo sapiens, UniProt P46734) (P46734 whole entry): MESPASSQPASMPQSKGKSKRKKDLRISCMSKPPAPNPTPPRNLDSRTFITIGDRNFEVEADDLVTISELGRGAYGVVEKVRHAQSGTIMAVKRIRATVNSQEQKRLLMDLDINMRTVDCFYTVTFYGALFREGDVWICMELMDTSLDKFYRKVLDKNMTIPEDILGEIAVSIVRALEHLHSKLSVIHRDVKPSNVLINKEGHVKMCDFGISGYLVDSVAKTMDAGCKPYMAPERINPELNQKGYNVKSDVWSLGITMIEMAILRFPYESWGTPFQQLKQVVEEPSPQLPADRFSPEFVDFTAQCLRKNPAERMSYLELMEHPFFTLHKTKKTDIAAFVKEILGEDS
Experimental: as §1

various enzymes [6] = biological target: various enzymes (Homo sapiens, UniProt O15197); settings: compound 1 uM
Chain of various enzymes (Homo sapiens, UniProt O15197) (O15197 32-1021): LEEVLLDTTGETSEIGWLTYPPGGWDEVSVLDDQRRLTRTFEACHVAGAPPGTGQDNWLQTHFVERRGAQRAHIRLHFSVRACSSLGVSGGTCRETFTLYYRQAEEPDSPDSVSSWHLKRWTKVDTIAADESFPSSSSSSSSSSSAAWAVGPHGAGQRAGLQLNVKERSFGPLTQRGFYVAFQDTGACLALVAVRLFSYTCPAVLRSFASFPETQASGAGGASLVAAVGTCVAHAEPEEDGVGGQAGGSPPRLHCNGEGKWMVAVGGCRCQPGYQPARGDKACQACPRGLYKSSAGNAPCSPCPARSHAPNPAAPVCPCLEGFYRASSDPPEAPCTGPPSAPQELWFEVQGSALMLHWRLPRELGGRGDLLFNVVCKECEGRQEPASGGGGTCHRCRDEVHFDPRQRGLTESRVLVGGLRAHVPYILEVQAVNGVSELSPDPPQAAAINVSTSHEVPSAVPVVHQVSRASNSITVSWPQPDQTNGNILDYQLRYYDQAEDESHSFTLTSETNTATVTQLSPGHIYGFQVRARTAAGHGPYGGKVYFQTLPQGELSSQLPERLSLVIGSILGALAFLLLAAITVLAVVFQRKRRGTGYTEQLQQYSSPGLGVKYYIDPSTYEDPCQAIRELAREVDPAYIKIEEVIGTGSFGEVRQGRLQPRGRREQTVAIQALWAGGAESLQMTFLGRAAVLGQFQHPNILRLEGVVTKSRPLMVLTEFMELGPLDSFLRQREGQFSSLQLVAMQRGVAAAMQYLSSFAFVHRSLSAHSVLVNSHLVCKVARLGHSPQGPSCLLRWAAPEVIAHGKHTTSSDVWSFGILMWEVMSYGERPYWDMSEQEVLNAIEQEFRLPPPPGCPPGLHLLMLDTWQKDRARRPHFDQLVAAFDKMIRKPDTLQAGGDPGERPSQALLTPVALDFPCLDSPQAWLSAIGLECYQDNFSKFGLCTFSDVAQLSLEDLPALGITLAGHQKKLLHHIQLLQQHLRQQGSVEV
Experimental: as §1

various enzymes [7] = biological target: various enzymes (Homo sapiens, UniProt Q9BQI3); settings: compound 1 uM
Experimental: as §1

various enzymes [8] = biological target: various enzymes (Homo sapiens, UniProt Q32MK0); settings: compound 1 uM
Experimental: as §1

various enzymes [9] = biological target: T1, various enzymes (Homo sapiens, UniProt O75385); settings: compound 1 uM
T1 sequence (O75385 1-1050): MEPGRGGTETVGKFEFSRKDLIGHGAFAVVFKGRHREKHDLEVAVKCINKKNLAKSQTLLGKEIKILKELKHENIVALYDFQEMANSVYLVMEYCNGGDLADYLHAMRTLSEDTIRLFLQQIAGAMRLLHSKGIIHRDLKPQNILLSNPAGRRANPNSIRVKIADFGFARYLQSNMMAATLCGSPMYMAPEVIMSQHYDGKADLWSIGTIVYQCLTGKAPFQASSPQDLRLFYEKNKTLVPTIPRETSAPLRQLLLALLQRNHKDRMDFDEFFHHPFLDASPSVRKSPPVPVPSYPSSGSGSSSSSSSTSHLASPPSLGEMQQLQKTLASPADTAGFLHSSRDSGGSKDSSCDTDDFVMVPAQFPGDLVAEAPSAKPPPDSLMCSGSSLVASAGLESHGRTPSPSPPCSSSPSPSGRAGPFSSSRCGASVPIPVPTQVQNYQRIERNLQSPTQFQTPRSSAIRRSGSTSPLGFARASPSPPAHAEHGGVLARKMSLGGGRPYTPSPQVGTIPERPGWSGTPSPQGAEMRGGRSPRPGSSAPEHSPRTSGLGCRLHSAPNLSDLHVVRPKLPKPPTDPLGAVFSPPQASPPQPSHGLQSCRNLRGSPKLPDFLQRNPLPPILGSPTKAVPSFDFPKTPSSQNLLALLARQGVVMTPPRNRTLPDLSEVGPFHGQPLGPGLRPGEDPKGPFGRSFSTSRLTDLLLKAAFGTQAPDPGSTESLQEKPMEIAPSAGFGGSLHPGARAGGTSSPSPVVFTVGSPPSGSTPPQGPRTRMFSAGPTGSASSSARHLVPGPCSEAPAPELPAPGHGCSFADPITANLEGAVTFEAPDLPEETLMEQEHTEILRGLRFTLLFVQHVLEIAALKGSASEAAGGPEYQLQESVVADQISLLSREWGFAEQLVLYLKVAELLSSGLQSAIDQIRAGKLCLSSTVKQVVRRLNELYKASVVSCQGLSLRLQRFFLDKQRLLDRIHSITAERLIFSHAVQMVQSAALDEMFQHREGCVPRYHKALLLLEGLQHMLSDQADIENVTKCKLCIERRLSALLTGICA
Experimental: as §1

various enzymes [10] = biological target: various enzymes (Homo sapiens, UniProt P31749); settings: compound 1 uM
Chain of various enzymes (Homo sapiens, UniProt P31749) (P31749 whole entry): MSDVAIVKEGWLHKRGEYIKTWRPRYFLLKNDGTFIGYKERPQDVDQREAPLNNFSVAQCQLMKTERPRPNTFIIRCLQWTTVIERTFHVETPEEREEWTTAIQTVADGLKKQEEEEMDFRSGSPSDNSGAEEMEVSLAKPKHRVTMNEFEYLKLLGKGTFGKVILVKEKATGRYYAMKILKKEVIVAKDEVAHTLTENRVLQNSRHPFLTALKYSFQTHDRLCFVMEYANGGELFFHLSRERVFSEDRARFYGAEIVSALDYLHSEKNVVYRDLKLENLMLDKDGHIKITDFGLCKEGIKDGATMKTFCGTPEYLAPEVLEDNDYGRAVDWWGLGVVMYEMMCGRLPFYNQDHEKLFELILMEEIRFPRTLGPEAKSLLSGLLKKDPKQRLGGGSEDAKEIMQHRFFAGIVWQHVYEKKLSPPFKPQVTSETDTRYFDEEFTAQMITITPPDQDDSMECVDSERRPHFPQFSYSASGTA
Experimental: as §1

various enzymes [11] = biological target: various enzymes (Homo sapiens, UniProt P20794); settings: compound 1 uM
Experimental: as §1

various enzymes [12] = biological target: various enzymes (Homo sapiens, UniProt Q9Y6M4); settings: compound 1 uM
Chain of various enzymes (Homo sapiens, UniProt Q9Y6M4) (Q9Y6M4 whole entry): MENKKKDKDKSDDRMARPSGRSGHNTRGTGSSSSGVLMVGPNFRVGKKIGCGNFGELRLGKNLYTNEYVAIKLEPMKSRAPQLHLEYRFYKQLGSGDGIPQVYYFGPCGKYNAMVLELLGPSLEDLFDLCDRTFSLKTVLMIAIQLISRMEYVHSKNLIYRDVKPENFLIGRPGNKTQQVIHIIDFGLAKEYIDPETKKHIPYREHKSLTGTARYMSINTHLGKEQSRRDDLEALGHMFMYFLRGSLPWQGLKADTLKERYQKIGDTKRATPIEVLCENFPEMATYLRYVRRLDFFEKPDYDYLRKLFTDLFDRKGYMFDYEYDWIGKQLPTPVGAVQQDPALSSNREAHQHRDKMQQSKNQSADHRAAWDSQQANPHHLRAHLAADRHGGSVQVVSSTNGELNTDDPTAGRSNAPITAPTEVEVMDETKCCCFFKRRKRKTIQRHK
Experimental: as §1

various enzymes [13] = biological target: various enzymes (Homo sapiens, UniProt O00238); settings: compound 1 uM
Experimental: as §1

various enzymes [14] = biological target: various enzymes (Homo sapiens, UniProt Q15746); settings: compound 1 uM
Experimental: as §1

various enzymes [15] = biological target: various enzymes (Homo sapiens, UniProt Q8TD08); settings: compound 1 uM
Experimental: as §1

various enzymes [16] = biological target: various enzymes (Homo sapiens, UniProt Q9UEW8); settings: compound 1 uM
Experimental: as §1

various enzymes [17] = biological target: various enzymes (Homo sapiens, UniProt P07949, M918T)
Chain of various enzymes (Homo sapiens, UniProt P07949, M918T) (P07949 29-1114 M918T): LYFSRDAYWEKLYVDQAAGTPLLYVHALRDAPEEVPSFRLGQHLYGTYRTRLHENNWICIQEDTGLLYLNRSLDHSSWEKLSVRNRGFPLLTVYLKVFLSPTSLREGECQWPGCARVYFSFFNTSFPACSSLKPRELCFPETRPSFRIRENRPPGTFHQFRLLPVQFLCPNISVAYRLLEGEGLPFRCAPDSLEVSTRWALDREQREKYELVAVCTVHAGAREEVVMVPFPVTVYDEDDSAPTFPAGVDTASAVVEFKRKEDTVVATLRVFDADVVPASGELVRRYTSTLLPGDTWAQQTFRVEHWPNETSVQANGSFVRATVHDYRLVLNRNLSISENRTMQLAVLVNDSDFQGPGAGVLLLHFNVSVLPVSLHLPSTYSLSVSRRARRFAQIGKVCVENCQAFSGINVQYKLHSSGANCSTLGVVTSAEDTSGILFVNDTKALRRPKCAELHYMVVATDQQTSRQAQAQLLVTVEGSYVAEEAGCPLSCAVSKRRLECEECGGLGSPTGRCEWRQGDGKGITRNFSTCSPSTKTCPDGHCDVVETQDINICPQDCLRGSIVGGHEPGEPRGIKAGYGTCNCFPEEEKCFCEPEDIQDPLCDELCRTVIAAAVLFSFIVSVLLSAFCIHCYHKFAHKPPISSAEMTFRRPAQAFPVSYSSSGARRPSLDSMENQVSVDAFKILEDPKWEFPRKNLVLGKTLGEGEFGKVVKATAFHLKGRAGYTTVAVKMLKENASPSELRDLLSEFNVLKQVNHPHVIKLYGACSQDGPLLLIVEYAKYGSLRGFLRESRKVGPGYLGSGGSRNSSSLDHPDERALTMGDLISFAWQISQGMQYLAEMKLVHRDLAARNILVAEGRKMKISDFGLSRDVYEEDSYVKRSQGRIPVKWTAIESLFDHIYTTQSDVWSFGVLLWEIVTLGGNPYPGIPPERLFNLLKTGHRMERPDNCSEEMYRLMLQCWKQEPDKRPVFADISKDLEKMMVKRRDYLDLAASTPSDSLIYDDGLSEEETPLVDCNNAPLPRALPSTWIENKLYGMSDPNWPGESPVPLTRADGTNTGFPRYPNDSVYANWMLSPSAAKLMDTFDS
Experimental: as §1

various enzymes [18] = biological target: various enzymes (Homo sapiens, UniProt Q9P1W9); settings: compound 1 uM
Chain of various enzymes (Homo sapiens, UniProt Q9P1W9) (Q9P1W9 whole entry): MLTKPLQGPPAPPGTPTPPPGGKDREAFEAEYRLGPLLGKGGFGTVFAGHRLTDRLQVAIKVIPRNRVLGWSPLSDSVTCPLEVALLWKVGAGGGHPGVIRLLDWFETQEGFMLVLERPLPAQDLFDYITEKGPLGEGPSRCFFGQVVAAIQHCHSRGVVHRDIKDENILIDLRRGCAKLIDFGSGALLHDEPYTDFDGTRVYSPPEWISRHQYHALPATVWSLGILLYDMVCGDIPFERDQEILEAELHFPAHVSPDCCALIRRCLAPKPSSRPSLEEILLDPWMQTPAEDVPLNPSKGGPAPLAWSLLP
Experimental: as §1

various enzymes [19] = biological target: various enzymes (Homo sapiens, UniProt O14920); settings: compound 1 uM
Chain of various enzymes (Homo sapiens, UniProt O14920) (O14920 whole entry): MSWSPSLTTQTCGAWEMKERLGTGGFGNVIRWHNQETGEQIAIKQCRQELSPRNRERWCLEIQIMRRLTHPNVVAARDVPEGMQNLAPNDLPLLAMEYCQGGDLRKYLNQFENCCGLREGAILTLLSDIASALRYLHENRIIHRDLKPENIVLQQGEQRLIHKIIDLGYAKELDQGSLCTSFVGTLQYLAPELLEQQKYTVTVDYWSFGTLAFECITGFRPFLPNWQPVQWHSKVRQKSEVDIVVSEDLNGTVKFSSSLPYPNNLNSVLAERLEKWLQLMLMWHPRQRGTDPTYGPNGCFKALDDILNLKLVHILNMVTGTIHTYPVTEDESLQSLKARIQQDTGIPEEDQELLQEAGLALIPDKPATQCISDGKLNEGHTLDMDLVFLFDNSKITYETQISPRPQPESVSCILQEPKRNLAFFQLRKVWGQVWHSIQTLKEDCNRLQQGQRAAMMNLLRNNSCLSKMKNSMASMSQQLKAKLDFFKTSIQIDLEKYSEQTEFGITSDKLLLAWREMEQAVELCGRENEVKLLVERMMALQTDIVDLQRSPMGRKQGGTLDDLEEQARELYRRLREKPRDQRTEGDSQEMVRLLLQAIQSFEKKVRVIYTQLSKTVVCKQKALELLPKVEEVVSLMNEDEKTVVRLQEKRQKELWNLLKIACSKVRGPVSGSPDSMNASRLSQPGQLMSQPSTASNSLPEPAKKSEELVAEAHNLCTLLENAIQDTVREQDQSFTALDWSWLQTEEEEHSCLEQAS
Experimental: as §1

various enzymes [20] = biological target: various enzymes (Homo sapiens, UniProt Q9NRH2); settings: compound 1 uM
Experimental: as §1

various enzymes [21] = biological target: T2, various enzymes (Homo sapiens, UniProt O60285); settings: compound 1 uM
T2 sequence (O60285 1-661): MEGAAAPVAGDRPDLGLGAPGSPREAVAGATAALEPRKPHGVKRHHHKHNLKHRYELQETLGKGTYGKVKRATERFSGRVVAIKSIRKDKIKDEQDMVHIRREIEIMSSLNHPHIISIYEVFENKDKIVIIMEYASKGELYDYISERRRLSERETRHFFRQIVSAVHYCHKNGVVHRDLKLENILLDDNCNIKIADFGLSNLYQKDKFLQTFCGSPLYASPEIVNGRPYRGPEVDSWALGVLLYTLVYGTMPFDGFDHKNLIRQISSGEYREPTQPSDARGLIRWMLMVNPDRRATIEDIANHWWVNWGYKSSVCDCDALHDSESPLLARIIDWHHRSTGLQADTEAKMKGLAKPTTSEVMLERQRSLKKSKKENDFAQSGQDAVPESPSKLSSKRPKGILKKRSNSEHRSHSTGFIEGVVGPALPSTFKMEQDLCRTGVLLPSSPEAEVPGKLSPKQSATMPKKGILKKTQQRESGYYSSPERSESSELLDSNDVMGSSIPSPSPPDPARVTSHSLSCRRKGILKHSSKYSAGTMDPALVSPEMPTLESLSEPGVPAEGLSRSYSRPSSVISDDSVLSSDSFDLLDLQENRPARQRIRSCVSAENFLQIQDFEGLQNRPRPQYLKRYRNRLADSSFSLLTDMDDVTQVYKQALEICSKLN
Experimental: as §1

SMILES	Ambit profiling: SRMS (various enzymes [1])	Ambit profiling: PIK3CG (various enzymes [2])	Ambit profiling: TXK (various enzymes [3])	Ambit profiling: DMPK (various enzymes [4])	Ambit profiling: MEK3 (various enzymes [5])	Ambit profiling: EIF2AK1 (various enzymes [7])	Ambit profiling: MLCK (various enzymes [8])	Ambit profiling: ULK1 (various enzymes [9])	Ambit profiling: AKT1 (various enzymes [10])	Ambit profiling: MAK (various enzymes [11])	Ambit profiling: CSNK1G3 (various enzymes [12])	Ambit profiling: BMPR1B (various enzymes [13])	Ambit profiling: MYLK (various enzymes [14])	Ambit profiling: ERK8 (various enzymes [15])	Ambit profiling: STK39 (various enzymes [16])	Ambit profiling: PIM2 (various enzymes [18])	Ambit profiling: IKK-beta (various enzymes [19])	Ambit profiling: SNRK (various enzymes [20])	Ambit profiling: ARK5 (various enzymes [21])	other results
CC(C)N1Cc2nn(C)cc2-c2cnc3[nH]cc(c3c2)-c2cn(nc2C(F)(F)F)CCCC1=O [Compound 45, (Z)-5-isopropyl-31-methyl-13-(trifluoromethyl)-11H,21H,31H-5-aza-2(3,5)-pyrrolo[2,3-b]pyridina-1(4,1),3(4,3)-dipyrazolacyclononaphan-6-one]	69	94	15	20	0	100	99	75	100	34	100	6.8	37	6.1	98	100	100	100	100	Ambit profiling: EPHB6 (various enzymes [6]): 4.8; Ambit profiling: RET(M918T) (various enzymes [17]; compound 1 uM): 0.2
COc1c2c(nn1C)CN(C(C)C)C(=O)CCCn1cc(c(C(F)(F)F)n1)-c1c[nH]c3ncc-2cc13 [Compound 50, (Z)-5-isopropyl-35-methoxy-31-methyl-13-(trifluoromethyl)-11H,21H,31H-5-aza-2(3,5)-pyrrolo[2,3-b]pyridina-1(4,1),3(4,3)-dipyrazolacyclononaphan-6-one]	81	54	3.2	100	7.1	66	82	93	100	77	79	5.1	14	18	100	100	87	86	100	Ambit profiling: EPH86 (various enzymes [6]): 0.7; Ambit profiling: RET(M918T) (various enzymes [17]): 0.25
